Test [1] addresses T1, PTPN2 (Homo sapiens, UniProt P17706).
T1 construct: expressed in transfected cells; host or cells: 293T (293T.109 HiBiT-PTPN2 line; parental 293T WT from ATCC)
T1 sequence (P17706 1-415): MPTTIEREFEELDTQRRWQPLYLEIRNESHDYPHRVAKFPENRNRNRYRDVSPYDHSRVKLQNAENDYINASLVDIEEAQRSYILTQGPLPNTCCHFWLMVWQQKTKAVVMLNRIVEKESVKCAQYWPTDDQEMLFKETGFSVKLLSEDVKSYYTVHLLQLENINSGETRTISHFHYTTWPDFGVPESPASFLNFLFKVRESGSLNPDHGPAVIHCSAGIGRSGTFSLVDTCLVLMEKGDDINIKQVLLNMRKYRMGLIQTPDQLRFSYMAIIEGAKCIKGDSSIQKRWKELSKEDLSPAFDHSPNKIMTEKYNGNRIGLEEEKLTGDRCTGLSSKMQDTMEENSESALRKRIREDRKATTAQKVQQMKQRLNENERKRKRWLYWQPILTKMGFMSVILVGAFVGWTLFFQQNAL
The experiment in a line: HiBiT-Degradation 293T.109 PTPN2 (Nano-Glo HiBiT Lytic Assay). Type of test: cell-based. Particulars: 293T.109 (HiBiT-PTPN2) cells, 24.0 hours. The method in brief:
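293T cells ectopically expressing N-terminally HiBiT-tagged PTPN2 were seeded at 5000 cells/well. They were treated with an 11-point half-log titration from 10 μM, in duplicate, for 24 hours at 37° C., 5% CO2. Remaining tagged PTPN2 was quantified by lytic HiBiT luminescence against untreated and no-reagent controls.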
For orientation: HiBiT is a short tag that completes a luciferase, so light tracks the accessible tagged protein.

In test [2] the test system is PTPN2. Kind of test: HiBiT-Degradation B16F10.4 PTPN2. Type of test: cell-based. The conditions noted are these: B16F10.4 cells, 24.0 hours.

Regarding `Cn1c(=O)n(C2CCC(=O)NC2=O)c2ccc(C3CCN(CCC(=O)Nc4ccc5c(F)c(N6CC(=O)NS6(=O)=O)c(O)cc5c4)CC3)cc21` (stereo not drawn) [Example 170, N-(6-(1,1-dioxido-4-oxo-1,2,5-thiadiazolidin-2-yl)-5-fluoro-7-hydroxynaphthalen-2-yl)-3-(4-(1-(2,6-dioxopiperidin-3-yl)-3-methyl-2-oxo-2,3-dihydro-1H-benzo[d]imidazol-5-yl)piperidin-1-yl)propanamide], the results for the DC50 at PTPN2 [1] and with PTPN2 [2] were 10 to 50 nM and 50 to 200 nM, respectively.
Regarding `Cn1c(=O)n(C2CCC(=O)NC2=O)c2ccc(C3CCN(CC(=O)N4CC(Nc5ccc6cc(O)c(N7CC(=O)NS7(=O)=O)c(F)c6c5)C4)CC3(F)F)cc21` (stereo not drawn) [Example 171, 3-(5-(1-(2-(3-((7-(1,1-dioxido-4-oxo-1,2,5-thiadiazolidin-2-yl)-8-fluoro-6-hydroxynaphthalen-2-yl)amino)azetidin-1-yl)-2-oxoethyl)-3,3-difluoropiperidin-4-yl)-3-methyl-2-oxo-2,3-dihydro-1H-benzo[d]imidazol-1-yl)piperidine-2,6-dione], the DC50 on PTPN2 [1] and with PTPN2 [2] was 50 to 200 nM in each case.
On to `Cn1c(=O)n(C2CCC(=O)NC2=O)c2ccc(-c3cnn(CC(=O)Nc4ccc5c(F)c(N6CC(=O)NS6(=O)=O)c(O)cc5c4)c3)cc21` (stereo not drawn) [Example 172, 2-[4-[1-(2,6-dioxo-3-piperidyl)-3-methyl-2-oxo-benzimidazol-5-yl]pyrazol-1-yl]-N-[5-fluoro-7-hydroxy-6-(1,1,4-trioxo-1,2,5-thiadiazolidin-2-yl)-2-naphthyl]acetamide], for which the DC50 on PTPN2 [1] and with PTPN2 [2] was 10 to 50 nM throughout.
`Cn1c(=O)n(C2CCC(=O)NC2=O)c2ccc(-c3cnn(CCC(=O)Nc4ccc5c(F)c(N6CC(=O)NS6(=O)=O)c(O)cc5c4)c3)cc21` (stereo not drawn) [Example 173, N-(6-(1,1-dioxido-4-oxo-1,2,5-thiadiazolidin-2-yl)-5-fluoro-7-hydroxynaphthalen-2-yl)-3-(4-(1-(2,6-dioxopiperidin-3-yl)-3-methyl-2-oxo-2,3-dihydro-1H-benzo[d]imidazol-5-yl)-1H-pyrazol-1-yl)propanamide]: the figures for the DC50 on PTPN2 [1] and with PTPN2 [2] were 10 to 50 nM and 50 to 200 nM, respectively.
For `CCn1c(=O)n(C2CCC(=O)NC2=O)c2ccc(C3CCN(CC(=O)Nc4ccc5c(F)c(N6CC(=O)NS6(=O)=O)c(O)cc5c4)CC3)cc21` (stereo not drawn) [Example 174, N-(6-(1,1-dioxido-4-oxo-1,2,5-thiadiazolidin-2-yl)-5-fluoro-7-hydroxynaphthalen-2-yl)-2-(4-(1-(2,6-dioxopiperidin-3-yl)-3-ethyl-2-oxo-2,3-dihydro-1H-benzo[d]imidazol-5-yl)piperidin-1-yl)acetamide], in that order: 10 to 50 nM and 50 to 200 nM.
For `Cn1c(=O)n(C2CCC(=O)NC2=O)c2ccc(-c3ccc(CC(=O)Nc4ccc5c(F)c(N6CC(=O)NS6(=O)=O)c(O)cc5c4)nc3)cc21` (stereo not drawn) [Example 175, N-(6-(1,1-dioxido-4-oxo-1,2,5-thiadiazolidin-2-yl)-5-fluoro-7-hydroxynaphthalen-2-yl)-2-(5-(1-(2,6-dioxopiperidin-3-yl)-3-methyl-2-oxo-2,3-dihydro-1H-benzo[d]imidazol-5-yl)pyridin-2-yl)acetamide], in that order: 10 to 50 nM and 50 to 200 nM.
For `Cn1c(=O)n(C2CCC(=O)NC2=O)c2ccc(C3CCN(CC4CC4C(=O)Nc4ccc5c(F)c(N6CC(=O)NS6(=O)=O)c(O)cc5c4)CC3)cc21` (stereo not drawn) [Example 176, N-(6-(1,1-dioxido-4-oxo-1,2,5-thiadiazolidin-2-yl)-5-fluoro-7-hydroxynaphthalen-2-yl)-2-((4-(1-(2,6-dioxopiperidin-3-yl)-3-methyl-2-oxo-2,3-dihydro-1H-benzo[d]imidazol-5-yl)piperidin-1-yl)methyl)cyclopropane-1-carboxamide], in that order: 10 to 50 nM and 50 to 200 nM.
`Cn1nc(C2CCC(=O)NC2=O)c2ccc(-c3ccc(CC(=O)Nc4ccc5c(F)c(N6CC(=O)NS6(=O)=O)c(O)cc5c4)cc3)cc21` (stereo not drawn) [Example 177, N-(6-(1,1-dioxido-4-oxo-1,2,5-thiadiazolidin-2-yl)-5-fluoro-7-hydroxynaphthalen-2-yl)-2-(4-(3-(2,6-dioxopiperidin-3-yl)-1-methyl-1H-indazol-6-yl)phenyl)acetamide]: the values for the DC50 at PTPN2 [1] and with PTPN2 [2] were 10 to 50 nM and 50 to 200 nM, respectively.
For `C[C@@H]1CC(c2ccc3c(c2)n(C)c(=O)n3C2CCC(=O)NC2=O)CCN1CC(=O)Nc1ccc2c(F)c(N3CC(=O)NS3(=O)=O)c(O)cc2c1` (stereo partly drawn) [Example 178, N-(6-(1,1-dioxido-4-oxo-1,2,5-thiadiazolidin-2-yl)-5-fluoro-7-hydroxynaphthalen-2-yl)-2-((2R)-4-(1-(2,6-dioxopiperidin-3-yl)-3-methyl-2-oxo-2,3-dihydro-1H-benzo[d]imidazol-5-yl)-2-methylpiperidin-1-yl)acetamide], in that order: 10 to 50 nM and 50 to 200 nM.
`Cn1nc(C2CCC(=O)NC2=O)c2ccc([C@H]3CC[C@@H](CC(=O)Nc4ccc5c(F)c(N6CC(=O)NS6(=O)=O)c(O)cc5c4)CC3)cc21` (stereo partly drawn) [Example 180, N-(6-(1,1-dioxido-4-oxo-1,2,5-thiadiazolidin-2-yl)-5-fluoro-7-hydroxynaphthalen-2-yl)-2-((cis)-4-(3-(2,6-dioxopiperidin-3-yl)-1-methyl-1H-indazol-6-yl)cyclohexyl)acetamide]: the DC50 (in general, the midpoint of the concentration-degradation curve) is 10 to 50 nM on PTPN2 [1] and 50 to 200 nM in the test on PTPN2 [2].
For `Cn1c(=O)n(C2CCC(=O)NC2=O)c2ccc(N3CCC(CCNC(=O)Nc4ccc5c(F)c(N6CC(=O)NS6(=O)=O)c(O)cc5c4)CC3)cc21` (stereo not drawn) [Example 181], in that order: 10 to 50 nM and 50 to 200 nM.
For `Cn1c(=O)n(C2CCC(=O)NC2=O)c2ccc(C3CCN(CC(=O)Nc4ccc5c(F)c(N6CC(=O)NS6(=O)=O)c(O)cc5c4)CC3F)cc21` (stereo not drawn) [Example 182, 2-[4-[1-(2,6-dioxo-3-piperidyl)-3-methyl-2-oxo-benzimidazol-5-yl]-3-fluoro-1-piperidyl]-N-[5-fluoro-7-hydroxy-6-(1,1,4-trioxo-1,2,5-thiadiazolidin-2-yl)-2-naphthyl]acetamide], in that order: 10 to 50 nM and 10 to 50 nM.
In the case of `Cn1c(=O)n(C2CCC(=O)NC2=O)c2ccc(C3CCN([C@H](CO)C(=O)Nc4ccc5c(F)c(N6CC(=O)NS6(=O)=O)c(O)cc5c4)CC3)cc21` (stereo partly drawn) [Example 183, (2R)—N-(6-(1,1-dioxido-4-oxo-1,2,5-thiadiazolidin-2-yl)-5-fluoro-7-hydroxynaphthalen-2-yl)-2-(4-(1-(2,6-dioxopiperidin-3-yl)-3-methyl-2-oxo-2,3-dihydro-1H-benzo[d]imidazol-5-yl)piperidin-1-yl)-3-hydroxypropanamide], the DC50 at PTPN2 [1] and in the test on PTPN2 [2] was 10 to 50 nM each time.
For the molecule `Cn1c(=O)n(C2CCC(=O)NC2=O)c2ccc(C3CCN([C@@H](CO)C(=O)Nc4ccc5c(F)c(N6CC(=O)NS6(=O)=O)c(O)cc5c4)CC3)cc21` (stereo partly drawn) [Example 184, (2S)—N-(6-(1,1-dioxido-4-oxo-1,2,5-thiadiazolidin-2-yl)-5-fluoro-7-hydroxynaphthalen-2-yl)-2-(4-(1-(2,6-dioxopiperidin-3-yl)-3-methyl-2-oxo-2,3-dihydro-1H-benzo[d]imidazol-5-yl)piperidin-1-yl)-3-hydroxypropanamide], the figures for the DC50 at PTPN2 [1] and with PTPN2 [2] were 10 to 50 nM and 50 to 200 nM, respectively.
In the case of `Cc1cc(CC(=O)Nc2ccc3c(F)c(N4CC(=O)NS4(=O)=O)c(O)cc3c2)ccc1Nc1ccc2c(C3CCC(=O)NC3=O)nn(C)c2c1` (stereo not drawn) [Example 185, N-(6-(1,1-dioxido-4-oxo-1,2,5-thiadiazolidin-2-yl)-5-fluoro-7-hydroxynaphthalen-2-yl)-2-(4-((3-(2,6-dioxopiperidin-3-yl)-1-methyl-1H-indazol-6-yl)amino)-3-methylphenyl)acetamide], the 50% degradation concentration (DC50) at PTPN2 [1] fell in the range of 10 to 50 nM; in the test on PTPN2 [2], 50 to 200 nM.

These data come from patent US20240383886A1, “Protein Tyrosine Phosphatase Degraders and Methods of Use Thereof” (CALICO LIFE SCIENCES LLC, priority 2019, published 2024).
